Measured values reported in the kinase profiling compilation of Christmann-Franck et al. (2016).

How the values were obtained:
Experiment in all cases: KINOMEscan competition binding
Settings in all cases: compound 10.0 µM
ZAP70 (human) = ZAP70 (human) (UniProt P43403)
PDPK1 (human) = PDPK1 (human) (UniProt O15530)
PRKCD (human) = PRKCD (human) (UniProt Q05655)
FGFR4 (human) = FGFR4 (human) (UniProt P22455)
MARK4 (human) = MARK4 (human) (UniProt Q96L34)
PKMYT1 (human) = PKMYT1 (human) (UniProt Q99640)
TGFBR1 (human) = TGFBR1 (human) (UniProt P36897)
ACVR1 (human) = ACVR1 (human) (UniProt Q04771)
Sequence of ACVR1 (human) (Q04771 whole entry, looked up): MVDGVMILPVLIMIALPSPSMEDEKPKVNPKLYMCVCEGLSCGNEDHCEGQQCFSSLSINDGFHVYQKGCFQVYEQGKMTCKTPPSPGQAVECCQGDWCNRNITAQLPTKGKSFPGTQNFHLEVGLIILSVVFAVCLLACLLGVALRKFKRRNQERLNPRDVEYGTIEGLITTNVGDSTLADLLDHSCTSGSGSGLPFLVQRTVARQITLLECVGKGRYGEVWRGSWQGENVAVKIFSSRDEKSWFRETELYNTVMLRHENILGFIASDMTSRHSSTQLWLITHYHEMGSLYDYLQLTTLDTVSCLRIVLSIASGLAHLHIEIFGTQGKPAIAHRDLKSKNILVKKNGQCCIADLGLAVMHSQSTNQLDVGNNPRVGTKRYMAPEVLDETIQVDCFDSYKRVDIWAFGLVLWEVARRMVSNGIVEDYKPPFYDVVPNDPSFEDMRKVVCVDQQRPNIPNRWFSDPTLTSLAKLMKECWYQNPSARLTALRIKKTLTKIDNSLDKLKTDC

CAMK1G (human) = CAMK1G (human) (UniProt Q96NX5)
RPS6KA4 KD1 (human) = RPS6KA4 KD1 (human) (UniProt O75676)
Sequence of RPS6KA4 KD1 (human) (O75676 whole entry, looked up): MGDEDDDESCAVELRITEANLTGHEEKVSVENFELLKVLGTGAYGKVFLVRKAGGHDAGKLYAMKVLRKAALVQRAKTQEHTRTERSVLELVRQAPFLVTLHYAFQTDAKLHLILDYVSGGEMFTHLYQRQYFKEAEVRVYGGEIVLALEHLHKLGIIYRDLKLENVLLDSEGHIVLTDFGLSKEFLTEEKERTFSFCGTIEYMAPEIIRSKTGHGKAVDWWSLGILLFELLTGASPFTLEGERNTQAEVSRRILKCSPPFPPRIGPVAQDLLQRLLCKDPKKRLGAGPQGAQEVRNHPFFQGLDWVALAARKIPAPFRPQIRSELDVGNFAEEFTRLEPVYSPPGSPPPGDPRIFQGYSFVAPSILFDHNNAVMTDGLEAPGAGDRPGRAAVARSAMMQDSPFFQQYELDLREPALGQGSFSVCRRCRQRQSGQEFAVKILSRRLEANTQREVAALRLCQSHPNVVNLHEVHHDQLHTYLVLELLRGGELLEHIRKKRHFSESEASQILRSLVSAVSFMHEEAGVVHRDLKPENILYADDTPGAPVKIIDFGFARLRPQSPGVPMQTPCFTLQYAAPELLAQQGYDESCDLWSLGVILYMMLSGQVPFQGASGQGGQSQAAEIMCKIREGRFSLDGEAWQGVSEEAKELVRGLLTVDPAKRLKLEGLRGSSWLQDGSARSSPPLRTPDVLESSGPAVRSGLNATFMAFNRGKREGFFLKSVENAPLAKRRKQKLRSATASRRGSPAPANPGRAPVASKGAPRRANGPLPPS

IGF1R (human) = IGF1R (human) (UniProt P08069)
TNK1 (human) = TNK1 (human) (UniProt Q13470)
PLK4 (human) = PLK4 (human) (UniProt O00444)
STK3 (human) = STK3 (human) (UniProt Q13188)
ADCK4 (human) = ADCK4 (human) (UniProt Q96D53)
WEE2 (human) = WEE2 (human) (UniProt P0C1S8)
Sequence of WEE2 (human) (P0C1S8 whole entry, looked up): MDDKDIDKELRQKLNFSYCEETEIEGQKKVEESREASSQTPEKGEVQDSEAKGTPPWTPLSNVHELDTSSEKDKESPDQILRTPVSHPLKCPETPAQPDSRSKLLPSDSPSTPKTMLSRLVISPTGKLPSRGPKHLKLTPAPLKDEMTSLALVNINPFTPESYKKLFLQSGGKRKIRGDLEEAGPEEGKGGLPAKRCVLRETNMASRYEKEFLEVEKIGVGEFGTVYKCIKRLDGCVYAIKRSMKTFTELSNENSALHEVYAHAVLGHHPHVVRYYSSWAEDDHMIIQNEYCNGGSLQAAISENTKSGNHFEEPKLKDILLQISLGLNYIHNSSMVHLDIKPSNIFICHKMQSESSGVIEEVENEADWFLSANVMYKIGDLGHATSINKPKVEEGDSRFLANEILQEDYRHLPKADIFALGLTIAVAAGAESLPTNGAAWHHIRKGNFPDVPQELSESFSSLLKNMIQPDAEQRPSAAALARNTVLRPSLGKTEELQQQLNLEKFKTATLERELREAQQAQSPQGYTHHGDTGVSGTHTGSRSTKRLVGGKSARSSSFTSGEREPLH

[1] = system: FLT3 (human), P36888 [ITD]
STK25 (human) = STK25 (human) (UniProt O00506)
Sequence of STK25 (human) (O00506 whole entry, looked up): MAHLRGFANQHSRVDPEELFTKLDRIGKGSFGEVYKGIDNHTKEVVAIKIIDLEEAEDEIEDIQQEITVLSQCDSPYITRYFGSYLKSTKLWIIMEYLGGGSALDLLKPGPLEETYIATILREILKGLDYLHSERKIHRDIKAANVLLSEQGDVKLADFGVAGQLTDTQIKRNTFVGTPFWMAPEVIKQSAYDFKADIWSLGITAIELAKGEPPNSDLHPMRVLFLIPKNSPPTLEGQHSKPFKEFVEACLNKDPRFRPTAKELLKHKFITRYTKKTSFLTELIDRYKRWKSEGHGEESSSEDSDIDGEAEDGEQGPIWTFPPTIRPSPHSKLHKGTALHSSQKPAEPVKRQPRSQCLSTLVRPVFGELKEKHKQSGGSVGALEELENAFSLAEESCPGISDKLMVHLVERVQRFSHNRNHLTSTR

LIMK1 (human) = LIMK1 (human) (UniProt P53667)
RIOK3 (human) = RIOK3 (human) (UniProt O14730)
PTK2 (human) = PTK2 (human) (UniProt Q05397)
ULK2 (human) = ULK2 (human) (UniProt Q8IYT8)
AAK1 (human) = AAK1 (human) (UniProt Q2M2I8)
STK32C (human) = STK32C (human) (UniProt Q86UX6)
ABL2 (human) = ABL2 (human) (UniProt P42684)
[2] = target: JAK1 JH2 pseudokinase (human) (UniProt P23458)
Sequence of JAK1 JH2 pseudokinase (human) (P23458 whole entry, looked up): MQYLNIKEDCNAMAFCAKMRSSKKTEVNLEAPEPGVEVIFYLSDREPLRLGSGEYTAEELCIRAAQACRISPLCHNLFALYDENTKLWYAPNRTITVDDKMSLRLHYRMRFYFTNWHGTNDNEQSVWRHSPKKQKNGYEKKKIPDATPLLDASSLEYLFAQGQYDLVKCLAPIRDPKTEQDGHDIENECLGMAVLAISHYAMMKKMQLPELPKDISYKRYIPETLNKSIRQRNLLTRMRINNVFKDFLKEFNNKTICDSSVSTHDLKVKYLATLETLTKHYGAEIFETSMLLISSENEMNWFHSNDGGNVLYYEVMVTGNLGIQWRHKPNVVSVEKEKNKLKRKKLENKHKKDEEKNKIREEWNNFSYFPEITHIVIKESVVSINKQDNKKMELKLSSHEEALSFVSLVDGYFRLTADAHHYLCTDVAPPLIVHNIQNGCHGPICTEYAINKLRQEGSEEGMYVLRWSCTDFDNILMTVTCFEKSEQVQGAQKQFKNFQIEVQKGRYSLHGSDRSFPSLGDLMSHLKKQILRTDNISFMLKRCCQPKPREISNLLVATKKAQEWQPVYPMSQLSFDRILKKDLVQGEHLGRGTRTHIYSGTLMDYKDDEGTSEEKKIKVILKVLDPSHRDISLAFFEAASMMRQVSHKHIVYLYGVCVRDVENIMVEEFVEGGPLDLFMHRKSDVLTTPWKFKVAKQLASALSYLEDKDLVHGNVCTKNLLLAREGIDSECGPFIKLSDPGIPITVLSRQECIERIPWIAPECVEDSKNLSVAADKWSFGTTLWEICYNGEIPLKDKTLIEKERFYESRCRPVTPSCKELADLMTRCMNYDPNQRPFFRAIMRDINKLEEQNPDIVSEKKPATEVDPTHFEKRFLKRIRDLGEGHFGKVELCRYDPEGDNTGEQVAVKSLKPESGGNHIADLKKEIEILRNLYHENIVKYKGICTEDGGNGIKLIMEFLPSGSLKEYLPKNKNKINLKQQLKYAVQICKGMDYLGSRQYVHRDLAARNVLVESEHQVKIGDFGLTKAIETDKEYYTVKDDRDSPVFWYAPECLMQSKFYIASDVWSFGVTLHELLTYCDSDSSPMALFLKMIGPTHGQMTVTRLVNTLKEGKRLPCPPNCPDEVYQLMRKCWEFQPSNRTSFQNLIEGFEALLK

SRPK3 (human) = SRPK3 (human) (UniProt Q9UPE1)
EPHA7 (human) = EPHA7 (human) (UniProt Q15375)
ITK (human) = ITK (human) (UniProt Q08881)
MYO3A (human) = MYO3A (human) (UniProt Q8NEV4)
PKN1 (human) = PKN1 (human) (UniProt Q16512)
NEK1 (human) = NEK1 (human) (UniProt Q96PY6)
EPHB4 (human) = EPHB4 (human) (UniProt P54760)
TEC (human) = TEC (human) (UniProt P42680)
Sequence of TEC (human) (P42680 whole entry, looked up): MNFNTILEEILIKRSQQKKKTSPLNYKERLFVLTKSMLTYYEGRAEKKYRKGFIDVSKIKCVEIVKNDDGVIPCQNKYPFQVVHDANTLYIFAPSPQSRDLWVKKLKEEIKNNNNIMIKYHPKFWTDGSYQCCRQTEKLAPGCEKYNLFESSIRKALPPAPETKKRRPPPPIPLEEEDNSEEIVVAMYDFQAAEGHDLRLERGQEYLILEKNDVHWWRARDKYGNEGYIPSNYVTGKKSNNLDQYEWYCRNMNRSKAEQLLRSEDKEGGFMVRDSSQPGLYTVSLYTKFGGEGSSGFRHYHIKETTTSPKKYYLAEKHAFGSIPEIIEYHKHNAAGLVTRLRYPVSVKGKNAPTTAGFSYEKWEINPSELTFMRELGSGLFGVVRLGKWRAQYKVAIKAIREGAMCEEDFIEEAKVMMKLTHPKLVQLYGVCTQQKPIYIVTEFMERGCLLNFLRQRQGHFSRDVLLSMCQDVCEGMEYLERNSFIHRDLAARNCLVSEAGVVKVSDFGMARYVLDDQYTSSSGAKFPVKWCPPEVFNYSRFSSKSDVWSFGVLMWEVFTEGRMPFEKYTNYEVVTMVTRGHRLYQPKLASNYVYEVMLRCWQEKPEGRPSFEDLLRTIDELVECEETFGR

PKN2 (human) = PKN2 (human) (UniProt Q16513)
Sequence of PKN2 (human) (Q16513 whole entry, looked up): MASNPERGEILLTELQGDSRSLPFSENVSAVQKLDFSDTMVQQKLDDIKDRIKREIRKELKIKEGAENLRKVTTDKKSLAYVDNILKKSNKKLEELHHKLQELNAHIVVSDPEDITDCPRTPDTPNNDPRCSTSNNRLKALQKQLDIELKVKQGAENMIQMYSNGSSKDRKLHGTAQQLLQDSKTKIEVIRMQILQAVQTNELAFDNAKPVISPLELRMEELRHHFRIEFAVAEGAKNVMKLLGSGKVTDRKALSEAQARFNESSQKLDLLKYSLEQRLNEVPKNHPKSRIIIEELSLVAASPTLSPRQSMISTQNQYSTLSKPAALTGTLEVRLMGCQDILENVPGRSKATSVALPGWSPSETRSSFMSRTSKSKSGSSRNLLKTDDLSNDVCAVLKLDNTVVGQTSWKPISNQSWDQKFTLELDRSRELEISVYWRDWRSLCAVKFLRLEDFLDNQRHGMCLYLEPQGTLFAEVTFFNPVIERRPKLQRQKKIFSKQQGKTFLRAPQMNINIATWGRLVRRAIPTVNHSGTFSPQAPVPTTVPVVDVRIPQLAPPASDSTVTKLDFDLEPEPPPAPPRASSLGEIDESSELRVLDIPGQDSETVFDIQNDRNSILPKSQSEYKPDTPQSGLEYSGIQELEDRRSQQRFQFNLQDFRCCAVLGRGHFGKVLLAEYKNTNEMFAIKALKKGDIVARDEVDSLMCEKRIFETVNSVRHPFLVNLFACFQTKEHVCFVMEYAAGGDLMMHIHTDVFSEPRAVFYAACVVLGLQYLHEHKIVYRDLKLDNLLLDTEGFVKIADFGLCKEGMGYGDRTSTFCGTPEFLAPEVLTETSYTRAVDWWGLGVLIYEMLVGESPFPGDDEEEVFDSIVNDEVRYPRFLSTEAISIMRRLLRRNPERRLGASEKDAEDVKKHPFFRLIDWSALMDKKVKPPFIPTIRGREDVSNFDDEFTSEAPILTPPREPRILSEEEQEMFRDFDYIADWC

PRKD3 (human) = PRKD3 (human) (UniProt O94806)
HCK (human) = HCK (human) (UniProt P08631)
IKBKB (human) = IKBKB (human) (UniProt O14920)
AXL (human) = AXL (human) (UniProt P30530)
RPS6KA2 KD2 (human) = RPS6KA2 KD2 (human) (UniProt Q15349)

With `Nc1ccc(-c2ccc3ncc4ccc(=O)n(-c5cccc(C(F)(F)F)c5)c4c3c2)cn1` the kinase still bound, per cent of control (ZAP70 (human)) was 100%, the kinase still bound, per cent of control (PDPK1 (human)) was 100% and the kinase still bound, per cent of control (PRKCD (human)) was 88%. For the same compound, the kinase still bound, per cent of control (FGFR4 (human)) was 100%, the kinase still bound, per cent of control (MARK4 (human)) was 100% and the kinase still bound, per cent of control (PKMYT1 (human)) was 94%. It also gave a kinase still bound, per cent of control (TGFBR1 (human)) of 100%, a kinase still bound, per cent of control (ACVR1 (human)) of 86% and a kinase still bound, per cent of control (CAMK1G (human)) of 88%. For the same compound, the kinase still bound, per cent of control (RPS6KA4 KD1 (human)) was 82%, the kinase still bound, per cent of control (IGF1R (human)) was 100% and the kinase still bound, per cent of control (TNK1 (human)) was 100%. It also gave a kinase still bound, per cent of control (PLK4 (human)) of 100%, a kinase still bound, per cent of control (STK3 (human)) of 63% and a kinase still bound, per cent of control (ADCK4 (human)) of 77%. It also gave a kinase still bound, per cent of control (WEE2 (human)) of 100%, a kinase still bound, per cent of control [1] of 45% and a kinase still bound, per cent of control (STK25 (human)) of 56%. For the same compound, the kinase still bound, per cent of control (LIMK1 (human)) was 100%, the kinase still bound, per cent of control (RIOK3 (human)) was 100% and the kinase still bound, per cent of control (PTK2 (human)) was 75%. It also gave a kinase still bound, per cent of control (ULK2 (human)) of 95%, a kinase still bound, per cent of control (AAK1 (human)) of 71% and a kinase still bound, per cent of control (STK32C (human)) of 100%. The kinase still bound, per cent of control (ABL2 (human)) was 100%, the kinase still bound, per cent of control [2] was 13% and the kinase still bound, per cent of control (SRPK3 (human)) was 95%. The kinase still bound, per cent of control (EPHA7 (human)) was 100%, the kinase still bound, per cent of control (ITK (human)) was 100% and the kinase still bound, per cent of control (MYO3A (human)) was 100%. It also gave a kinase still bound, per cent of control (PKN1 (human)) of 100%, a kinase still bound, per cent of control (NEK1 (human)) of 87% and a kinase still bound, per cent of control (EPHB4 (human)) of 100%. It also gave a kinase still bound, per cent of control (TEC (human)) of 100%, a kinase still bound, per cent of control (PKN2 (human)) of 72% and a kinase still bound, per cent of control (PRKD3 (human)) of 100%. The kinase still bound, per cent of control (HCK (human)) was 100%, the kinase still bound, per cent of control (IKBKB (human)) was 89% and the kinase still bound, per cent of control (AXL (human)) was 74%. The kinase still bound, per cent of control (RPS6KA2 KD2 (human)) was 86%.
In the case of `C=CC(=O)Nc1cccc(Nc2nc(N[C@H]3CC[C@H](N(C)C)CC3)nc3c2ncn3C(C)C)c1`, the kinase still bound, per cent of control (ZAP70 (human)) is reported as 77%, the kinase still bound, per cent of control (PDPK1 (human)) is reported as 100% and the kinase still bound, per cent of control (PRKCD (human)) is reported as 83%. The kinase still bound, per cent of control (FGFR4 (human)) was 98%, the kinase still bound, per cent of control (MARK4 (human)) was 94% and the kinase still bound, per cent of control (PKMYT1 (human)) was 93%. For the same compound, the kinase still bound, per cent of control (TGFBR1 (human)) was 100%, the kinase still bound, per cent of control (ACVR1 (human)) was 100% and the kinase still bound, per cent of control (CAMK1G (human)) was 93%. For the same compound, the kinase still bound, per cent of control (RPS6KA4 KD1 (human)) was 59%, the kinase still bound, per cent of control (IGF1R (human)) was 87% and the kinase still bound, per cent of control (TNK1 (human)) was 100%. It also gave a kinase still bound, per cent of control (PLK4 (human)) of 85%, a kinase still bound, per cent of control (STK3 (human)) of 57% and a kinase still bound, per cent of control (ADCK4 (human)) of 94%. The kinase still bound, per cent of control (WEE2 (human)) was 100%, the kinase still bound, per cent of control [1] was 1% and the kinase still bound, per cent of control (STK25 (human)) was 89%. The kinase still bound, per cent of control (LIMK1 (human)) was 100%, the kinase still bound, per cent of control (RIOK3 (human)) was 34% and the kinase still bound, per cent of control (PTK2 (human)) was 26%. It also gave a kinase still bound, per cent of control (ULK2 (human)) of 2%, a kinase still bound, per cent of control (AAK1 (human)) of 45% and a kinase still bound, per cent of control (STK32C (human)) of 98%. It also gave a kinase still bound, per cent of control (ABL2 (human)) of 94%, a kinase still bound, per cent of control [2] of 76% and a kinase still bound, per cent of control (SRPK3 (human)) of 47%. It also gave a kinase still bound, per cent of control (EPHA7 (human)) of 100%, a kinase still bound, per cent of control (ITK (human)) of 65% and a kinase still bound, per cent of control (MYO3A (human)) of 94%. It also gave a kinase still bound, per cent of control (PKN1 (human)) of 22%, a kinase still bound, per cent of control (NEK1 (human)) of 100% and a kinase still bound, per cent of control (EPHB4 (human)) of 60%. It also gave a kinase still bound, per cent of control (TEC (human)) of 100%, a kinase still bound, per cent of control (PKN2 (human)) of 61% and a kinase still bound, per cent of control (PRKD3 (human)) of 80%. For the same compound, the kinase still bound, per cent of control (HCK (human)) was 27%, the kinase still bound, per cent of control (IKBKB (human)) was 76% and the kinase still bound, per cent of control (AXL (human)) was 40%. It also gave a kinase still bound, per cent of control (RPS6KA2 KD2 (human)) of 81%.
